{
  "source": "patent US8686126B2",
  "about": "“HBV drug resistance methods” (priority 2002, dated 2014)",
  "test_system": "HBsAg",
  "test": "Serum levels of HBsAg by modified Laurell electrophoresis in HBV-infected patient No. 7",
  "type": "in vivo",
  "conditions": "lamivudine treatment, just after breakthrough virus emerged",
  "experimental": "HBsAg, anti-HBs, HBeAg, anti-HBe, and anti-HCV were determined by the microparticle enzyme-immunoassay ([…]) method (Abbott Laboratories, North Chicago, Ill., US). Anti-HDV enzyme-immunoassay method was performed as per the methodology supplied by the manufacturer (Abbott Laboratories, North Chicago, Ill., US). Serum levels of HBsAg were determined by a modified Laurell electrophoresis system (Gerlich et al., 1975). HBV-DNA levels were tested by using a commercial liquid-hybridization assay (Digene, Maryland, US), with the lower limit of detection of this assay 5 pg/mL of viral DNA.\nThe HBsAg level of the patient was 1.19 μg/mL at the beginning of the lamivudine treatment and became undetectable after 4 months.",
  "data": [
    {"smiles": "Nc1ccn([C@@H]2CS[C@H](CO)O2)c(=O)n1", "note": "[lamivudine, beta-L-(−)-2′,3′-dideoxy-3′-thiacytidine]", "values": [
      {"measurement": "HBsAg level", "value": 10.8, "unit": "µg/mL"}
    ]}
  ]
}
